Source: publication PMC10332459, “N-terminal lid swapping contributes to the substrate specificity and activity of thermophilic lipase TrLipE” (Frontiers in Microbiology, 2023)

Tests used:
Test in all cases: p-nitrophenol release at […] nm, non-linear fit
Format in all cases: biochemical, Thermomicrobium roseum
TrL3 = system: T1, TrL3; settings: 60 °C; Tris-HCl 50 mM pH 8.0; gum arabic and sodium deoxycholate emulsion; read-out: 4-Nitrophenyl benzoate
T1 construct: gene EstE7; N-terminal lid Asp13-Gly57 of 3K6K fused to TrLipE Val54-Ala323; His-tagged, E. coli BL21, 35-37 kDa

TrL17 = system: T2, TrL17; settings: 60 °C; Tris-HCl 50 mM pH 8.0; gum arabic and sodium deoxycholate emulsion; read-out: 4-Nitrophenyl benzoate
T2 construct: gene EstN7; N-terminal lid Lys2-Glu45 of 7B4Q fused to TrLipE Val54-Ala323; His-tagged, E. coli BL21, 35-37 kDa

TrL2 = system: T3, TrL2; settings: 60 °C; Tris-HCl 50 mM pH 8.0; gum arabic and sodium deoxycholate emulsion; read-out: 4-Nitrophenyl benzoate
T3 construct: gene EstE5; N-terminal lid Ala2-Asp42 of 3H18 fused to TrLipE Val54-Ala323; His-tagged, E. coli BL21, 35-37 kDa

TrL18 = system: T4, TrL18; settings: 60 °C; Tris-HCl 50 mM pH 8.0; gum arabic and sodium deoxycholate emulsion; read-out: 4-Nitrophenyl benzoate
T4 construct: N-terminal lid Ala2-Glu45 of 7UAY fused to TrLipE Val54-Ala323; His-tagged, E. coli BL21, 35-37 kDa

TrL16 = system: T5, TrL16; settings: 60 °C; Tris-HCl 50 mM pH 8.0; gum arabic and sodium deoxycholate emulsion; read-out: 4-Nitrophenyl decanoate
T5 construct: gene PMGL3; N-terminal lid Asn2-Cys49 of 7B1X fused to TrLipE Val54-Ala323; His-tagged, E. coli BL21, 35-37 kDa

TrL8 = system: T6, TrL8; settings: 60 °C; Tris-HCl 50 mM pH 8.0; gum arabic and sodium deoxycholate emulsion; read-out: 4-Nitrophenyl decanoate
T6 construct: gene ThaEst2349; N-terminal lid Pro2-Asp49 of 4V2I fused to TrLipE Val54-Ala323; His-tagged, E. coli BL21, 35-37 kDa

TrL5 = system: T7, TrL5; settings: 60 °C; Tris-HCl 50 mM pH 8.0; gum arabic and sodium deoxycholate emulsion; read-out: 4-Nitrophenyl laurate
T7 construct: N-terminal lid Asn23-Pro66 of 4C89 fused to TrLipE Val54-Ala323; His-tagged, E. coli BL21, 35-37 kDa

TrL7 = system: T8, TrL7; settings: 60 °C; Tris-HCl 50 mM pH 8.0; gum arabic and sodium deoxycholate emulsion; read-out: 4-Nitrophenyl laurate
T8 construct: gene SshEstI; N-terminal lid Pro2-Lys45 of 4P9N fused to TrLipE Val54-Ala323; His-tagged, E. coli BL21, 35-37 kDa

TrL11 = system: T9, TrL11; settings: 60 °C; Tris-HCl 50 mM pH 8.0; gum arabic and sodium deoxycholate emulsion; read-out: 4-Nitrophenyl palmitate
T9 construct: gene E53; N-terminal lid Lys4-Gly69 of 5HC0 fused to TrLipE Val54-Ala323; His-tagged, E. coli BL21, 35-37 kDa

TrL9 = system: T10, TrL9; settings: 60 °C; Tris-HCl 50 mM pH 8.0; gum arabic and sodium deoxycholate emulsion; read-out: 4-Nitrophenyl palmitate
T10 construct: gene Est8; N-terminal lid Ala2-Gly49 of 4YPV fused to TrLipE Val54-Ala323; His-tagged, E. coli BL21, 35-37 kDa

TrL12 = system: T11, TrL12; settings: 60 °C; Tris-HCl 50 mM pH 8.0; gum arabic and sodium deoxycholate emulsion; read-out: 4-Nitrophenyl palmitate
T11 construct: gene TmelEST2; N-terminal lid Gln34-Glu74 of 5MIF fused to TrLipE Val54-Ala323; His-tagged, E. coli BL21, 35-37 kDa

TrL1 = system: T12, TrL1; settings: 60 °C; Tris-HCl 50 mM pH 8.0; gum arabic and sodium deoxycholate emulsion; read-out: 4-Nitrophenyl palmitate
T12 construct: gene EST2; N-terminal lid Leu3-Pro44 of 1EVQ fused to TrLipE Val54-Ala323; His-tagged, E. coli BL21, 35-37 kDa

TrL4 = system: T13, TrL4; settings: 60 °C; Tris-HCl 50 mM pH 8.0; gum arabic and sodium deoxycholate emulsion; read-out: 4-Nitrophenyl palmitate
T13 construct: gene LipW; N-terminal lid Val2-Gly53 of 3QH4 fused to TrLipE Val54-Ala323; His-tagged, E. coli BL21, 35-37 kDa

For `O=C(Oc1ccc([N+](=O)[O-])cc1)c1ccccc1` [4-Nitrophenyl benzoate], the Km (TrL3) was 37 µM, the Km (TrL17) was 60.2 µM and the Km (TrL2) was 50 µM. It also gave a Km (TrL18) of 44.9 µM.
For `CCCCCCCCCC(=O)Oc1ccc([N+](=O)[O-])cc1` [4-Nitrophenyl decanoate], the Km (TrL16) was 44.7 µM and the Km (TrL8) was 21.8 µM.
Work on `CCCCCCCCCCCC(=O)Oc1ccc([N+](=O)[O-])cc1` [4-Nitrophenyl laurate] yielded a Km (TrL5) of 21.1 µM and a Km (TrL7) of 12.8 µM.
`CCCCCCCCCCCCCCCC(=O)Oc1ccc([N+](=O)[O-])cc1` [4-Nitrophenyl palmitate] showed a Km (TrL11) of 77.4 µM, a Km (TrL9) of 23.2 µM and a Km (TrL12) of 13.7 µM. For the same compound, the Km (TrL1) was 55.3 µM and the Km (TrL4) was 7.46 µM.
